“And” between values parts separate entries of the source, which are not always exact repeats. Identical values can stand only once. Counter-ions that a name gives are not always drawn.
How the values were obtained:
[1] = system: cholinergic channel receptors in PC12 cells; assay: Whole-cell patch-clamp measurement of cholinergic channel activation in NGF-differentiated PC12 cells; format: cell-based, rat; conditions: for CURRENT AT PEAK: holding potential -60 mV
Text: B. Protocols for the Determination of Cholinergic Channel Activation in PC12 Cells.
The cholinergic channel activator properties of Example 9 were investigated in PC12 cells using the whole-cell patch-clamp approach to measure current flow through ligand-gated membrane channels. […]
PC12 cells are a rat pheochromocytoma cell line that, upon treatment with nerve growth factor (NGF) differentiate into a neuronal phenotype and express nicotinic cholinergic channels (Greene & Tischier, Proceedings of the National Academy of Sciences of the United States of America, 73: 2424-2428, 1976; Dichter et al., Nature, 268: 501-504, 1977). Prominent neuronal cholinergic channel subunits in these cells are α3, α5, β2, β3 and β4 (Rogers et al., Journal of Neuroscience, 12: 4611-4623, 1992).
PC12 cells were obtained initially from ATCC and, using standard techniques were maintained in DMEM containing 10% heat-inactivated fetal calf serum and 5% heat-inactivated horse serum (37°C, 95% 02 & 5% CO2). Electrophysiologic recordings were obtained from differentiated (neurite-bearing) cells after 4-7 days exposure to NGF. For this purpose, the undifferentiated cells were first plated onto polylysine-coated 12 mm round glass coverslips in 60x15 mm plastic Petri dishes. After 20 minutes, differentiating medium was added (DMEM containing 100 ng/ml nerve growth factor, 5% heat-inactivated fetal calf serum and 2.5% heat-inactivated horse serum) and the cells were refed with this medium every 3 days.
The whole-cell patch-clamp technique was used to record voltage-activated currents and ligand-gated currents activated by substances applied through the U-tube flow-reversal technique (Fenwick et al., The Journal of Physiology (London) 331: 577-597, 1982). A coverslip bearing the cells was transferred from culture dish to the recording chamber (350 µL volume) and superfused (1 ml/min) at room temperature with an extracellular solution containing 150 mM NaCl, 2.8 mM KCI, 2.0 mM CaCl2, 1.0 mM MgCl2, ≥ 10 mM dextrose and 10 mM Na-HEPES buffer (7.3 pH, 325 mOsm). The intracellular (recording pipette) solution consisted of 140 mM KCl, 1.0 mM CaCl2, 2.0 mM MgCl2, 11 mM K-EGTA, and 10 mM K-HEPES buffer (7.3 pH, 315 mOsm). Osmolarities were adjusted using dextrose such that the extracellular solution was 10 mOsm hypertonic compared to the intracellular solution. Voltage-gated inward (sodium) and outward (potassium) currents were monitored throughout the experiment to determine establishment and maintenance of the whole-cell recording configuration.
The ligand was applied at least twice at each concentration in every cell, and applications were separated by ≥ 3 minutes to allow for recovery from desensitization, washout of the bathing solution, and re-equilibration of the U-tube. Antagonists were applied to the bathing solution through superfusion for 5-10 minutes prior to application of both antagonist and agonist through the U-tube flow reversal.

[2] = Inhibitory (passive) avoidance (IA) test of learning/memory; format: in vivo
Text: The inhibitory (or sometimes called passive) avoidance (IA) test is a well accepted animal model of learning/memory used to assess the activity of novel cholinergic agonists to enhance cognitive function (Wanibuchi et al., Eur. J. Pharmacol., 1990, 187:479). Animals are placed in the illuminated (12 X 14 X 11 cm) portion of a two-chambered box, from which they enter through a guillotine door to the larger (24 X 13.5 X 12 cm) dark compartment of the box. Entry to the dark compartment is accompanied by a mild (0.5 mA), brief (2 seconds) footshock. Initial latencies to cross are recorded, with an imposed 60 second ceiling. Following a 72 hour retention interval, animals are returned to the illuminated chamber, and latency to return to the dark compartment is again recorded, with a ceiling of 180 seconds. No footshock is administered on the test day.
Twelve animals were used in each group.

[3] = system: CD1 mice; assay: Mouse elevated plus-maze (EPM) test of anxiolytic activity; format: in vivo
Text: The mouse elevated plus-maze is a conflict test that probes anxiolytic activity of test compounds (Lister, Psychopharmacology, 1987, 92:180). It is based on the fact that exposure of mice to an elevated open arm leads to an avoidance response considerably stronger than that evoked by exposure to an enclosed arm.
The apparatus required to perform this test is made of plywood and consists of two open arms (17 X 8 cm) and two enclosed arms (17 X 8 X 15 cm) extending from a central platform (8 X 8 cm). It is mounted on a plywood base rising 39 cm above the floor. Mice are released on the central platform and the time spent in the open and enclosed arms is recorded during a 5 minute test period. The test compounds were administered to CD1 mice 15 minutes before the test. […]

[4] = level of improvement in retention of the avoidance response, dose or dose range in brackets, IP 15 minutes before training, 12 animals per group
[5] = level of increase in time spent in the open arms, dose or dose range in brackets, given 15 minutes before 5 minute test

| Structure (SMILES) | IA [2, 4] | EPM [3, 5] | also measured |
| --- | --- | --- | --- |
| CN1CCCC1c1cccnc1 (single isomer, unassigned; (-)) [(-)-nicotine, reference compound] |  |  | CURRENT AT PEAK ([1]; 50 µM (-)-nicotine, individual PC12 cells A-E): 81 pA and 108 pA and 163 pA and 539 pA; CURRENT AT PEAK, MEAN±S.E.M. ([1]; 50 µM (-)-nicotine, n=5 PC12 cells): 235 ± 84 pA; EC50 ([1]; PC12 cells current response): 52 µM; IA ([2]; in vivo, ip): significant [0.19-0.62]; EPM ([3]; mouse, in vivo): significant [0.62-1.9]; time spent by the mice in the open arms of the maze ([3]; mouse, in vivo): significant increase |
| CN1CCC[C@H]1COc1cnccn1.O=C(O)/C=C/C(=O)O [Example 3, 2-(1-Methyl-2-(S)-pyrrolidinylmethyloxy)pyrazine fumarate] | NE [0.062-1.9] | NE [0.019-0.62] |  |
| CN1CCC[C@H]1COc1cccnc1.O=C(O)/C=C/C(=O)O [Example 4, 3-(1-Methyl-2-(S)-pyrrolidinylmethyloxy)pyridine fumarate] | significant [0.019] | NE [0.019-0.62] |  |
| Cl.c1cnc(OC[C@@H]2CCN2)cn1 [Example 7, 2-(2-(S)-azetidinylmethyloxy)pyrazine hydrochloride] | marginal | NE [0.019-0.62] |  |
| CN1CC[C@H]1COc1cnccn1.Cl [Example 8, 2-(1-Methyl-2-(S)-azetidinylmethyloxy)pyrazine hydrochloride] | NE [0.062- 1.9] | NE [0.062- 1.9] |  |
| Cl.c1cncc(OC[C@@H]2CCN2)c1 [Example 9, 3-(2-(S)-azetidinylmethyloxy)pyridine hydrochloride] | NE [0.0019- 0.062] | significant [0.0062] | CURRENT AT PEAK ([1]; 10 µM Example 9, individual PC12 cells A-E, hydrochloride): 165 pA and 173 pA and 484 pA and 283 pA and 702 pA; CURRENT AT PEAK, MEAN±S.E.M. ([1]; 10 µM Example 9, n=5 PC12 cells): 361 ±103 pA; RESPONSE RATIO Example 9 /(-)-NICOTINE ([1]; 10 µM Example 9 versus 50 µM (-)-nicotine in the same cell, individual PC12 cells A-E, hydrochloride, 10 µM): 203% and 161% and 171% and 173% and 130%; RESPONSE RATIO Example 9 /(-)-NICOTINE, MEAN±S.E.M. ([1]; 10 µM Example 9 versus 50 µM (-)-nicotine in the same cell, n=5): 168 ± 12% |
| CN1CC[C@H]1COc1cccnc1.Cl [Example 10, 3-(1-Methyl-2-(S)-azetidinylmethyloxy)pyridine hydrochloride] | marginal [0.62] | significant [0.19] |  |
| c1cncc(OC[C@@H]2CCCN2)c1 [Example 14, 3-(2-(S)-pyrrolidinylmethyloxy)pyridine furmarate] | NE [0.019- 0.62] | marginal [0.019] |  |
| Cl.Cl.Clc1cncc(OC[C@@H]2CCCN2)c1 [Example 15, 5-Chloro-3-(2-(S)-pyrrolidinylmethyloxy)pyridine dihydrochloride] | significantly inhibits [0.062] | significant [0.062- 0.19] |  |
| CN1CCC[C@H]1COc1cncc(Cl)c1.Cl.Cl [Example 16, 5-Chloro-3-(1-methyl-2-(S)-pyrrolidinylmethyloxy)pyridine dihydrochloride] | significant [0.019] | NE [0.019- 0.62] |  |
| Cc1ncccc1OC[C@@H]1CCCN1.Cl.Cl [Example 17, 2-Methyl-3-(2-(S)-pyrrolidinylmethyloxy)pyridine dihydrochloride] | significant [0.062, 0.62, 1.9] | significant [1.9] |  |
| Cc1ccc(OC[C@@H]2CCCN2)cn1.Cl.Cl [Example 18, 6-Methyl-3-(2-(S)-pyrrolidinylmethyloxy)pyridine dihydrochloride] | NE [0.019- 0.62] | significant [0.062- 0.19] |  |
| Cc1ccc(OC[C@@H]2CCCN2C)cn1.Cl.Cl [Example 19, 6-Methyl-3-(1-methyl-2-(S)-pyrrolidinylmethyloxy)pyridine dihydrochloride] | NE [0.019- 0.62] | NE [0.019-62] |  |
| CC1CC[C@@H](COc2cccnc2)N1C.Cl.Cl (stereo partly drawn) [Example 22, 3-(1-Methyl-5-methyl-2-(S)-pyrrolidinylmethyloxy)pyridine dihydrochloride] | NE [0.062- 1.9] | NE [0.062-1.9] |  |
| Cc1ncccc1OC[C@@H]1CCN1.Cl.Cl [Example 29, 2-Methyl-3-(2-(S)-azetidinylmethyloxy)pyridine dihydrochloride] | significantly Inhibits [19] | significant [0.62, 1.9] |  |
| c1csc(OCC23CCCN2CCC3)n1 [Example 34, 2-(1-(8-pyrrolizidinyl)methyloxy)thiazole hydrochloride salt] | NE [0.062-1.9] | marginal [0.62] |  |
| CNC1(C)C2CCC(C2)C1(C)C (centres unmarked) [Mecamylamine, reference compound] |  |  | inhibition of the responses to Example 9 ([1]; Mecamylamine 10 µM against Example 9 10 µM, n=4): ≥ 80% |

Source: patent EP0663912B1, “HETEROCYCLIC ETHER COMPOUNDS THAT ENHANCE COGNITIVE FUNCTION” (ABBOTT LABORATORIES, priority 1992, dated 1994)
